One data set concerns C. auris efflux. As to the kind of experiment: Nile red accumulation assay (flow cytometry). The class given is cell-based, Candida auris. How it is done: FIGS. 5A, 5B and 6 illustrate that azoffluxin increases fluconazole (FLC) bioavailability by inhibiting Cdr1-mediated efflux in C. auris. FIG. 5A show C. auris strains grown to exponential phase and treated with 50 μM azoffluxin for 10 minutes when indicated, followed by addition of Nile red for 20 minutes. Cells were then imaged on the DIC and DsRed channels at equivalent exposure times. FIG. 5B: depicts a flow cytometer and histograms of the cells, showing the fluorescence on the PE channel per event for ˜20,000 events. […] FIG. 6 illustrates azoffluxin increases fluconazole (FLC) bioavailability by inhibiting Cdr1-mediated efflux in C. auris. Dose response assays were conducted with a C. auris parental strain, a strain with the efflux pump gene CDR1 deleted, and a strain with the efflux pump CDR4-1 deleted. FLC was titered in a two-fold dilution on the x-axis in the absence and presence of 50 μM azoffluxin. Growth was measured at 48 hours using OD600 and normalized to a no drug control well (see color bar).
Cellular efflux was determined by measuring Nile red accumulation, as previously described. Cells were subcultured from an OD600 0.1 in YPD for 4 hours until exponential phase was reached. […] To quantify fluorescence, a CytoFlex Flow Cytometer (Beckman Coulter) was used. […] Each sample was run using the CytExpert Software until ˜20,000 events had been recorded. […]
(A flow cytometer gives signals particle by particle.)

The next data set deals with C. auris. As to the kind of experiment: Sterol composition by LC-MS. The conditions noted are these: 18 hours. The class given is cell-based, Candida auris. An excerpt: FIGS. 3A-3B, and 4A-4B illustrate azoffluxin increases fluconazole (FLC) bioavailability by inhibiting Cdr1-mediated efflux in C. auris, as described above. FIG. 3A depicts the relative abundance of specific sterols determined in C. auris after an 18-hour treatment with the respective compounds (⋅ indicates combo treatment concentrations) using LC-MS. Values are plotted relative to the internal standard of cholesterol and error bars indicate standard deviation between technical triplicates. Significance was determined by an unpaired student t-test of each condition to untreated, (*) indicates a p-value<0.05 and (**) indicates a p-value<0.01. FIG. 3B depicts the intracellular concentrations of FLC and azoffluxin measured after treatment for 1 hour (conditions as in FIG. 3A) Error bars indicate standard deviation between technical triplicates. Significance was determined by an unpaired student t-test, (**) indicates a p-value<0.01. FIG. 4A depicts the quantified relative expression of a panel of putative efflux pumps in C. auris Ci6684. Expression of CDR1 (B9J08_000164), MDR1 (B9J08_003981), CDR4-1 (B9J08_000479), CDR4-2 (B9J08_002451), SNQ2-1 (B9J08_001125), and SNQ2-2 (B9J08_004452) was measured by RT-qPCR. […] FIG. 4B depicts expression of CDR1 (B9J08_000164) and CDR4-1 (B9J08_000479) measured by quantitative real-time PCR (RT-qPCR). […]

In data set [1] the test system is HEK293 cancer cells that overexpress the efflux pump MDR1. As to the kind of experiment: Doxorubicin cytotoxicity with azoffluxin. It counts as cell-based. The conditions noted are these: dose response and single concentration. From the text: Dose response (FIG. 23A) and single concentration (FIG. 23B).

Take `C=C(C)C[C@@H](O)COc1cc2c(cc1C1(c3cc4c(cc3OC[C@H](O)CC(=C)C)OCO4)C(=O)Nc3cc(F)ccc31)OCO2` [CMLD012336]: the “increase in relative cell-associated Nile red signal” value with C. auris efflux (50 μM azoffluxin, C. auris Ci6684) stood at 42 fold. For the same compound, in the data set with C. auris efflux (Clade III isolates B11221 and B11222), the “increase in Nile red accumulation” value is on record as 36-40 fold. Besides, the “increase in 14-α-methyl-3,6-diol” value in the data set on C. auris (azoffluxin + low fluconazole vs low fluconazole alone) amounted to 4 fold. Besides, the “abundance of ergosterol, lanosterol, 14-α-methyl-3,6-diol” value in the data set with C. auris (azoffluxin alone vs untreated) is recorded as “No significant increases”. Moreover, the cytotoxicity of doxorubicin entry in data set [1] was “enhances cytotoxicity of doxorubicin”.

For the origin of these results see patent publication US11773086B2, “Fungal modulators” (TRUSTEES OF BOSTON UNIVERSITY, priority 2020, dated 2023).
